From patent US20150203517A1, “Prodrugs of Compounds that Enhance Antifungal Activity and Compositions of Said Prodrugs” (priority 2014, published 2015)
Where two headings read alike, the source gives them in different places.

Assay: Saline solubility at 1.00 mg/mL and 0.50 mg/mL (with pH by indicator paper)
Type: physicochemical
Settings: for pH at 1.00 mg/mL of MGCD290 in saline: final concentration of hydroxamate 1 1.00 mg/mL, pH indicator paper; for solubility at 1 h: saline or isotonic, thermodynamic from solid, centrifuged, soluble = no precipitate formed
Experimental: Assays were performed to determine the saline solubility at 1.00 and 0.50 mg/ml and the stability of certain of the prodrug compounds of Examples 1-111. The following procedures were used.
Step 1. Sample preparation. An amount of the compound sample was precisely weighed to correspond to around 5 mg of the hydroxamate of compound 1, taking into account the mass of the leaving group and the salt factor if applicable. The sample was placed in a 16×125 mm glass screw cap tube. Saline was added so that the final concentration of hydroxamate 1 was 1.00 mg/mL. The pH was measured with pH indicator paper. The tube was shaken for 1 hour on a Vortex apparatus then centrifuged at 3000 rpm (1800 rcf) for 5 minutes. If the compound example was soluble (no precipitate formed) the procedure continued to step 2. If a precipitate formed then the sample was diluted with saline so that the final concentration of the hydroxamate of compound 1 was 0.50 mg/mL, and the shaking and centrifuging steps were repeated. If the compound example was soluble (no precipitate formed) the procedure continued to step 2. If a precipitate formed the sample was discarded. Step 2. HPLC analysis. A 500 μL aliquot of a sample solution prepared according to Step 1 was taken up into a 1.5 mL injection vial to which was added 500 μL of saline. The vial was shaken on a Vortex apparatus, injected into the HPLC instrument (UV detection, zero time point) and the retention time and purity of the sample compound were determined. The injection was repeated after 6 hours and 24 hours, and a comparison was made of the retention time, peak areas and level of degradation (if any) using the GDADI50 method.

[1] = 0.50 mg/mL as hydroxamate 1, shaken 1 hour, read-out: Soluble at 0.5 mg/mL of MGCD290 (Y/N)
[2] = 1.00 mg/mL as hydroxamate 1, shaken 1 hour, read-out: Soluble at 1.00 mg/mL of MGCD290 (Y/N)

| Compound | pH at 1.00 mg/mL of MGCD290 in saline | solubility at 1 h [1] [µg/mL] | solubility at 1 h [2] [µg/mL] |
| --- | --- | --- | --- |
| COCCOCCOCCOCCOCC(=O)NCCC[C@H](NC(=O)COCCOCCOCCOCCOC)C(=O)NCCC(=O)ONC(=O)Cc1ccc(CCCCc2ccccc2)cc1 [Compound 160] | 4.5-5 | < 500 | < 1000 |
| CC(=O)OCC(=O)NCC[C@H](NC(=O)COC(C)=O)C(=O)NCCC(=O)ONC(=O)Cc1ccc(CCCCc2ccccc2)cc1 [Compound 151] | 4.5-5 | < 500 | < 1000 |
| COCCOCCOCCOCCOCC(=O)NCC1(C(=O)ONC(=O)Cc2ccc(CCCCc3ccccc3)cc2)CC1 [Compound 56] | 4.5-5 | < 500 | < 1000 |
| CCNC(=O)ONC(=O)Cc1ccc(CCCCc2ccccc2)cc1 [Compound 74] | 4.5-5 | < 500 | < 1000 |
| O=C1COCCOCC(=O)N[C@H](C(=O)NCCC(=O)ONC(=O)Cc2ccc(CCCCc3ccccc3)cc2)CCCCN1 [Compound 83, (S)-6,14-Dioxo-N-(3-oxo-3-(2-(4-(4-phenylbutyl)phenyl)acetamidooxy)propyl)-1,4-dioxa-7,13-diazacyclopentadecane-8-carboxamide] | 4.5-5 | < 500 | < 1000 |
| COCCOCCOCCOCCOCCOCC(=O)N1CCC(CC(=O)ONC(=O)Cc2ccc(CCCCc3ccccc3)cc2)CC1 [Compound 117] | 4.5-5 |  | > 1000 |
| COCCOCCOCC(=O)NCC1(C(=O)ONC(=O)Cc2ccc(CCCCc3ccccc3)cc2)CC1 [Compound 55, 2-(2-(2-Methoxyethoxyl)ethoxy)-N-((1-((2-(4-(4-phenylbutyl)phenyl)acetamidooxy)carbonyl)cyclopropyl)methyl)acetamide] |  | < 500 | < 1000 |
| COCCOCCOCC(=O)N1CC(CCCC(=O)ONC(=O)Cc2ccc(CCCCc3ccccc3)cc2)C1 [Compound 128B] | 5.5-6 | < 500 | < 1000 |
| O=C1COCCOCCOCC(=O)N[C@H](C(=O)NCCC(=O)ONC(=O)Cc2ccc(CCCCc3ccccc3)cc2)CCCCN1 [Compound 84] | 4.5-5 | < 500 | < 1000 |
| CC(C)OC(=O)ONC(=O)Cc1ccc(CCCCc2ccccc2)cc1 [Compound 76, N-(isopropoxycarbonyloxy)-2-(4-(4-phenylbutyl)phenyl)acetamide] | 4.5-5 | < 500 | < 1000 |
| COCCOCCOCCOCCOCCOCC(=O)NCCC(=O)ONC(=O)Cc1ccc(CCCCc2ccccc2)cc1 [Compound 62] | 4.5-5 | < 500 | < 1000 |
| COCCOCC(=O)NCCCC[C@H](NC(=O)COCCOC)C(=O)ONC(=O)Cc1ccc(CCCCc2ccccc2)cc1 [Compound 70] | 4.5-5 | < 500 | < 1000 |
| Cl.O=C(Cc1ccc(CCCCc2ccccc2)cc1)NOC(=O)CCC(=O)N1CCNCC1 [Compound 123, N-(4-oxo-4-(piperazin-1-yl)butanoyloxy)-2-(4-(4-phenylbutyl)phenyl) acetamide hydrochloride] | 4.5-5 |  | > 1000 |
| COCCOCCOCC(=O)NCCCC[C@H](NC(=O)COCCOCCOC)C(=O)NC[C@H](C)C(=O)ONC(=O)Cc1ccc(CCCCc2ccccc2)cc1 [Compound 91] | 4.5-5 |  | > 1000 |
| COCCOCCOCCOCCOCC(=O)N1CCC(CCC(=O)ONC(=O)Cc2ccc(CCCCc3ccccc3)cc2)CC1 [Compound 113] | 5.5-6 | < 500 | < 1000 |
| COCCOCCOCC(=O)NCCC(=O)ONC(=O)Cc1ccc(CCCCc2ccccc2)cc1 [Compound 60] | 4.5-5 | < 500 | < 1000 |
